Laboratory results reported in article PMC8020424, “Characterization of D-xylose reductase, XyrB, from Aspergillus niger” (Biotechnology Reports, 2021).
Read-outs that look alike come from different tables or passages of the source.

Test system: T1, XyrB
T1 construct: full-length intron-free codon-optimized gene in pET-28a(+), E. coli BL21(DE3)pLysS, HisTrap purified; AKR motif 22-277
Test: NADPH consumption at […] nm, Michaelis-Menten fit
Type: biochemical, Aspergillus niger
Details: 0.2 mM NADPH, PBS pH 7.0, 25 °C

With `OC[C@H]1OC(O)[C@H](O)[C@@H](O)[C@H]1O` (stereo partly drawn) [D-galactose] as the compound, how does the Km (read-out: Km) read?
Its Km is 12.5 mM.

How did the Km (read-out: D-xylose / Km) turn out when `OC1OC[C@@H](O)[C@H](O)[C@H]1O` (stereo partly drawn) [D-xylose] was run?
Its Km is 3.3 mM.

Which Km (read-out: Km) does the source give for `OC1OC[C@H](O)[C@H](O)[C@H]1O` (stereo partly drawn) [L-arabinose] here?
Its Km is 9.9 mM.
